pEC50, pIC50: −log10 of the molar value.
Legend:
Keap1/NRF2 = target: T1, Keap1/NRF2 (Homo sapiens, UniProt Q14145); test: NRF2-Keap1 FP Assay (Kelch domain (321-609) of Keap1, TAMRA-labeled NRF2 ETGE peptide); format: binding; conditions: Keap1 (321-609) 20 nM, Tamra labeled peptide 8 nM
T1 construct: Keap1 (321-609) is diluted to 40 nM (2×) in 1× assay buffer
From the text: One model for the NRF2-Keap1 interaction is through two binding sites in the Neh2 domain on NRF2. The two sites are referred to as the DLG binding motif (latch domain, uM affinity) and the ETGE binding motif (hinge domain, nM affinity). The Keap1 protein consists of an N-terminal region (NTR), a broad complex, tramtrack, and brick a′ brac domain (BTB), an intervening region (IVR), a double glycine repeat domain (DGR or Kelch), and a C-terminal region. The DLG and ETGE motifs of NRF2's Neh2 domain bind to the Kelch domain of Keap1 at different affinities. In the Keap1 Kelch fluorescence polarization (FP) assay, a TAMRA-labeled 16 mer peptide (AFFAQLQLDEETGEFL) containing the ETGE motif of NRF2 and the Kelch domain (321-609) of Keap1 is used. The assay determines if a compound interferes with the binding between Keap1 […] and the TAMRA-labeled peptide. Binding of TAMRA-labeled NRF2 peptide to Keap1 (321-609) results in a high FP signal. If a compound interferes with the binding between the peptide and the protein, it will cause the assay signal to decrease. Thus, assay signal is inversely proportional to binding inhibition.
100 nl of 100× compound dose response curves (serial 3-fold dilutions) in DMSO are stamped using an Echo liquid handling system (Labcyte) into 384-well low volume black assay plates (Greiner, #784076), with DMSO in columns 6 and 18. The top concentration of compound is located in columns 1 and 13. Keap1 (321-609) is diluted to 40 nM (2×) in 1× assay buffer (50 mM Tris, pH 8.0, 100 mM NaCl, 5 mM MgCl2, 1 mM DTT, 2 mM CHAPS, and 0.005% BSA) and 5 ul is added using a Multidrop Combi (Thermo Electron Corporation) equipped with a metal tip dispenser to all wells of the compound plate, except column 18. Column 18 receives only 5 ul of assay buffer. Immediately, 5 uL of 16 nM (2×) of Tamra labeled peptide (AFFAQLQLDEETGEFL, 21st Century Biochemicals) is added to all wells of the plate. The plates are spun at 500 rpm for 1 min, incubated for 1 hr at room temperature, and read on an Analyst GT (Molecular Devices) equipped with excitation (530/25 nm) and emission (580/10 nm) filters designed for Tamra probes. A 561 nm dichroic mirror is also used in the Analyst. The final assay concentrations of Keap1 (321-609) and Tamra labeled peptide are 20 nM and 8 nM, respectively. Fluorescence measurements, represented as mP, are used in the transformation of the data. Compound activity is calculated based on percent inhibition, normalized against controls in the assay (Control 1 contains the Tamra peptide and Keap1 (321-609) together (0% response) and control 2 contains the Tamra peptide alone (100% response)). Data analysis is handled using the software package Abase XE (Surrey, United Kingdom. The % inhibition values are calculated by the equation: 100−(100*((compound response-average control 2)/(average control 1−average control 2))). For calculation of pIC50s, Abase XE uses a four parameter equation.

NRF2/Keap1 = target: T2, NRF2/Keap1 (Homo sapiens, UniProt Q14145); test: NRF2-Keap1 TR-FRET Assay (full length NRF2 and full length Keap1); format: binding; conditions: 25 nM Keap1-FlagHis, 50 nM biotin-NRF2 added
T2 construct: full length NRF2 protein and full length Keap1 protein (Keap1 exists a dimer) are used
T2 sequence (Q14145 whole entry): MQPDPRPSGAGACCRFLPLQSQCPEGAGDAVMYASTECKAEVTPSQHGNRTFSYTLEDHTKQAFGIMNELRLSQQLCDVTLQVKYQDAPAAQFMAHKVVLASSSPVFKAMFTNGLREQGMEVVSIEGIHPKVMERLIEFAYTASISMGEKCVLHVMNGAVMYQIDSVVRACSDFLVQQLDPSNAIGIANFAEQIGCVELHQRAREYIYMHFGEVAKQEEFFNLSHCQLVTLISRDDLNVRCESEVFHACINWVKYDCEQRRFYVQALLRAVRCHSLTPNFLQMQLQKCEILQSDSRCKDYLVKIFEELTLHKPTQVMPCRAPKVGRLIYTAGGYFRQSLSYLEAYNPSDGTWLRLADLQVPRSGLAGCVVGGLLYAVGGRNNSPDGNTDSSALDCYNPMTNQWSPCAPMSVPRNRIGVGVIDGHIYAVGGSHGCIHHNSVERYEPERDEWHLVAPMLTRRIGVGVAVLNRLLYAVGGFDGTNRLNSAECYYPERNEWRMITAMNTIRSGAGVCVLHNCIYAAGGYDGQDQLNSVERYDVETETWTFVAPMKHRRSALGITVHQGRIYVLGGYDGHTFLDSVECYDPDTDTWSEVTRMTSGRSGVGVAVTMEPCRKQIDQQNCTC
From the text: In the NRF2-Keap1 TR-FRET (time-resolved fluorescence resonance energy transfer) assay, full length NRF2 protein and full length Keap1 protein (Keap1 exists a dimer) are used. The assay detects the ability of compound to displace the binding of FlagHis-tagged Keap1 with biotinylated, Avi-tagged NRF2 protein. Biotin-NRF2 binds to streptavidin-europium (a component of the detection mix) and Keap1-FlagHis is recognized by anti-Flag APC (allophycocyanin) antibody (also a component of the detection mix). If binding occurs between the two proteins, there will be an energy transfer from the Eu+3 (donor) at 615 nm to the APC (acceptor) at 665 nm. A potential Keap1 inhibitor will cause a reduction in the TR-FRET signal by interfering with the binding of Keap1 to NRF2.
One hundred nanoliters of 100× compound dose response curves (serial 3-fold dilutions) in DMSO are stamped using an Echo liquid handling system (Labcyte) into 384-well, low volume, black assay plates (Greiner, #784076), with DMSO in columns 6 and 18. The top concentration of compound is located in columns 1 and 13. All reagents are diluted in assay buffer (50 mM Tris, pH 8.0, 5 mM MgCl2, 100 mM NaCl, 0.005% BSA, 1 mM DTT, and 2 mM CHAPS). The BSA, DTT, and CHAPS are added to the assay buffer on the day of assay. Using a Multidrop Combi (Thermo Electron Corporation) equipped with a metal tip dispenser, 5 ul of 25 nM Keap1-FlagHis protein is added to all wells of the compound plate, with the exception of the wells in column 18. Wells in column 18 receive 5 ul of assay buffer instead. Plates are centrifuged at 500 rpm for 1 minute, covered with a plate lid, and incubated at 37° C. for 2.25 hours. Plates are then removed from the incubator and allowed to cool to RT for 15 minutes. Five microliters of 50 nM biotin-NRF2 protein is then added to all wells of the plates and the plates are spun at 500 rpm for 1 minute, followed by incubating at 4° C. for 1.25 hours. The plates are then allowed to warm to RT for 15 minutes, followed by the addition of 10 ul of detection mix (1 nM Streptavidin Eu+ W1024 and 5 ug/ml mouse anti-DYKDDDDK IgG conjugated to SureLight APC antibody; both from Columbia Biosciences) to all wells. Plates are spun at 500 rpm for 1 minute, incubated for 1 hour at RT, and read on an Envision plate reader using a 320 nm excitation filter and 615 nm and 665 nm emission filters. Compound response (% inhibition) and potency (pIC50) are calculated based on the ratio of the two emissions (665 nm/615 nm) and then the transformed data is normalized against controls in the assay (control 1=1% DMSO in the presence of NRF2 and Keap1 protein and control 2=1% DMSO in the absence of protein). Data analysis is handled using the software package Abase XE (Surrey, United Kingdom). The % inhibition values are calculated from the ratio (transformed) data by the equation: 100−(100*(compound response-average control 2)/(average control 1−average control 2)).
For calculation of pIC50s, Abase XE uses a four parameter equation.

[1] = system: NQO1 specific enzyme activity in BEAS-2B cells; test: BEAS-2B NQO1 MTT Assay; format: cell-based; conditions: NQO1 specific activity induction
From the text: NAD(P)H:quinone oxidoreductase 1 (NQO1), also called DT diaphorase, is a homodimeric FAD-containing enzyme that catalyzes obligatory NAD(P)H-dependent two-electron reductions of quinones and protects cells against the toxic and neoplastic effects of free radicals and reactive oxygen species arising from one-electron reductions. The transcription of NQO1 is finely regulated by NRF2, and thus NQO1 activity is a good marker for NRF2 activation. On day one, frozen BEAS-2B cells (ATCC) are thawed in a water bath, counted, and re-suspended at a concentration of 250,000 cells/mL. Fifty microliters of cells are plated in 384 well black clear-bottomed plates. Plates are incubated at 37° C., 5% CO2 overnight. On day two, plates are centrifuged and 50 nL of compound or controls are added to the cells. Plates are then incubated at 37° C., 5% CO2 for 48 hours. On day four, medium is aspirated from the plate and crude cell lysates are made by adding 13 uL of 1× Cell Signaling Technologies lysis buffer with 1 Complete, Mini, EDTA-free Protease Inhibitor Tablet (Roche) for each 10 mL of lysis buffer. After lysis plates are incubated for 20 minutes at room temperature. Two microliters of lysate are removed for use in Cell Titer Glo assay (Promega) and MTT cocktail is prepared (Prochaska et. al. 1998) for measurement of NQO1 activity. Fifty microliters of MTT cocktail is added to each well, plate is centrifuged, and analyzed on an Envision plate reader (Perkin Elmer) using Absorbance 570 nm label for 30 minutes. Product formation is measured kinetically and the pEC50 of NQO1 specific activity induction is calculated by plotting the change in absorbance (Delta OD/min) versus the log of compound concentration followed by 3-parameter fitting.

T1 sequence (Q14145 321-609): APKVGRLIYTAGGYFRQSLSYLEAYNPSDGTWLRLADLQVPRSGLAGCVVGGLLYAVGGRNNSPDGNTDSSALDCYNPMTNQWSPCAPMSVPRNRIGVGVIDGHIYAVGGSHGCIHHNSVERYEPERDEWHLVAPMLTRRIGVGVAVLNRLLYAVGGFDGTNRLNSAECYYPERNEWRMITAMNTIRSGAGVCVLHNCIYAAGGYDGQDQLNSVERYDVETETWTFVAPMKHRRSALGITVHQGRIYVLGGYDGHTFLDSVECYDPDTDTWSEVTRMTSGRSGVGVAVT

SMILES	pIC50 (Keap1/NRF2)	pIC50 (NRF2/Keap1)	pEC50 ([1]; Homo sapiens, BEAS-2B, 48 h)	pEC50 ([1]; 48 hours)
O=C(O)c1cnn(-c2cccc(C3CCCC(n4ncc5c4CCCC5)C3)c2)c1C1CC1 (racemic) [Example 2, 5-Cyclopropyl-1-{3-[3-(4,5,6,7-tetrahydro-1H-indazol-1-yl)cyclohexyl]phenyl}-1H-pyrazole-4-carboxylic Acid]	6.00 to 7.00	5.00 to 6.00	5.00 to 6.00	
O=C(O)c1cnn(-c2cccc([C@H]3CCC[C@@H](C(=O)N4CCCCC4)C3)c2)c1C1CC1 (racemic) [Example 3, 5-Cyclopropyl-1-{3-[3-(piperidine-1-carbonyl)cyclohexyl]phenyl}-1H-pyrazole-4-carboxylic Acid]	6.00 to 7.00	5.00 to 6.00	5.00 to 6.00	
O=C(O)c1cnn(-c2cccc(C3CCC(n4ncc5c4CCCC5=O)C3)c2)c1C1CC1 (stereo not drawn) [Example 15, 5-Cyclopropyl-1-{3-[3-(4-oxo-4,5,6,7-tetrahydro-indazol-1-yl)-cyclopentyl]-phenyl}-1H-pyrazole-4-carboxylic Acid]	6.00 to 7.00	5.00 to 6.00	5.00 to 6.00	
CCCC1CCc2cnn([C@@H]3CCC[C@H](c4cccc(-n5ncc(C(=O)O)c5C5CC5)c4)C3)c21 (mixture of isomers) [Example 16, 5-Cyclopropyl-1-[3-(3-{6-propyl-1H,4H,5H,6H-cyclopenta[c]pyrazol-1-yl}cyclohexyl)phenyl]-1H-pyrazole-4-carboxylic Acid]	6.00 to 7.00	5.00 to 6.00	5.00 to 6.00	
O=C(O)c1cnn(-c2cccc(C3CCC(n4ncc5c4CCC5)C3)c2)c1C1CC1 (mixture of isomers) [Example 10, 1-[3-(3-{1H,4H,5H,6H-cyclopenta[c]pyrazol-1-yl}cyclopentyl)phenyl]-5-cyclopropyl-1H-pyrazole-4-carboxylic Acid]	6.00 to 7.00	4.00 to 5.00	5.00 to 6.00	
CC1(C)CCCN1C(=O)C1CCCC(c2cccc(-n3ncc(C(=O)O)c3C3CC3)c2)C1 (racemic) [Example 6, 5-cyclopropyl-1-{3-[3-(2,2-dimethylpyrrolidine-1-carbonyl)cyclohexyl]phenyl}-1H-pyrazole-4-carboxylic Acid]	6.00 to 7.00	5.00 to 6.00	5.00 to 6.00	
O=C(O)c1cnn(-c2cccc(C3CCCC(C(=O)N4CCCC45CCCCC5)C3)c2)c1C1CC1 (racemic) [Example 7, 1-[3-(3-{1-Azaspiro[4.5]decane-1-carbonyl}cyclohexyl)phenyl]-5-cyclopropyl-1H-pyrazole-4-carboxylic Acid]	6.00 to 7.00	5.00 to 6.00	5.00 to 6.00	

The next lines start with results.

pIC50 (Keap1/NRF2)	pIC50 (NRF2/Keap1)	SMILES	pEC50 ([1]; Homo sapiens, BEAS-2B, 48 h)	pEC50 ([1]; 48 hours)
6.00 to 7.00	5.00 to 6.00	CN(C(=O)C1CCCC(c2cccc(-n3ncc(C(=O)O)c3C3CC3)c2)C1)C1CCCCC1 (stereo not drawn) [Example 21, 1-(3-(3-(Cyclohexyl(methyl)carbamoyl)cyclohexyl)phenyl)-5-cyclopropyl-1H-pyrazole-4-carboxylic Acid]	5.00 to 6.00	
6.00 to 7.00	5.00 to 6.00	CC1(C)CCc2cnn([C@H]3CCC[C@@H](c4cccc(-n5ncc(C(=O)O)c5C5CC5)c4)C3)c21 (racemic) [Example 24, 5-Cyclopropyl-1-(3-(-3-(6,6-dimethyl-5,6-dihydrocyclopenta[c]pyrazol-1(4H)-yl)cyclohexyl)phenyl)-1H-pyrazole-4-carboxylic Acid]	5.00 to 6.00	
6.00 to 7.00	5.00 to 6.00	O=C(O)c1cnn(-c2cccc(C3CCCC(C(=O)N4CCCCCC4)C3)c2)c1C1CC1 (stereo not drawn) [Example 20, 1-(3-(3-(Azepane-1-carbonyl)cyclohexyl)phenyl)-5-cyclopropyl-1H-pyrazole-4-carboxylic Acid]	5.00 to 6.00	
6.00 to 7.00	5.00 to 6.00	CCCCC1CCc2cnn([C@@H]3CCC[C@@H](c4cccc(-n5ncc(C(=O)O)c5C5CC5)c4)C3)c21 (stereo in doubt) [Example 37, 1-(3-((1,3-cis)-3-(6-Butyl-5,6-dihydrocyclopenta[c]pyrazol-1(4H)-yl)cyclohexyl)phenyl)-5-cyclopropyl-1H-pyrazole-4-carboxylic Acid]		5.00 to 6.00
5.00 to 6.00	5.00 to 6.00	CCOC[C@@H]1CCCN1C(=O)C1CCCC(c2cccc(-n3ncc(C(=O)O)c3C3CC3)c2)C1 (single isomer, unassigned) [Example 18h]		5.00 to 6.00

— patent US10351530B2, “Arylcyclohexyl pyrazoles as NRF2 regulators” (GlaxoSmithKline Intellectual Property Development Limited, priority 2015, dated 2019)
